According to patent US6599748B1, “Hardness indicator composition and method of water hardness analysis” (Miura Co., Ltd., priority 1999, dated 2003):
Where two headings read alike, the source gives them in different places.

Assays:
[1] = Ca chelate stability constant (chelating power with calcium); assay type: physicochemical
Source text: […]. […] […].

[2] = Source text: Therefore, the desensitizer to be added to the metal indicator is explained. […] However, the desensitizer differs from the metal indicator in that the metal indicator forms complex ions in combination with all hardness-component metal ions, while the desensitizer forms complex ions in combination with part of the hardness-component metal ions. […] Symbol “ ” in results represents usableness as the desensitizer, and “×” represents unusableness as the desensitizer.
Accordingly, Table 1 show the results of judgment determined by taking into account these conditions.

Ca chelate stability constant, logK [1] | Solubility, g/100 g water [2] | Compound | Ca chelate stability constant, logK ([1]; chelating power with calcium)
2.59 | – | O=C([O-])CNCC(=O)[O-].[K+].[K+] [2K iminodiacetate] | –
2.59 | 10 g/100 g water | O=C([O-])CNCC(=O)[O-].[Na+].[Na+] [2Na iminodiacetate, sodium iminodiacetate] | –
– | – | O=C([O-])CC(O)(CC(=O)[O-])C(=O)[O-].[Na+].[Na+].[Na+] [2Na citrate, sodium citrate] | <2.0
<2.0 | over 40 g/100 g water | sodium polyacrylate [Na polyacrylate] | –

Compound | Ca chelate stability constant, logK [1] | Solubility, g/100 g water [2] | Ca chelate stability constant, logK ([1]; chelating power with calcium)
O=C([O-])CC(O)(CC(=O)O)C(=O)[O-].[K+].[K+] [2K citrate] | <2.0 | – | –
